Assays:
Assay in all cases: relative viability (nuclei count vs DMSO), 5 days (fraction); higher = more cells survive
AZ505 + Linsitinib = compound: C1CCC(CC1)N(CCNCCC2=C3C(=C(C=C2)O)NC(=O)CO3)C(=O)CCNCCC4=CC(=C(C=C4)Cl)Cl [AZ505] + C[C@]1(O)C[C@@H](c2nc(-c3ccc4ccc(-c5ccccc5)nc4c3)c3c(N)nccn32)C1 [Linsitinib] (partner 1 µM)
Method in brief: (§1)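 Dosing by pin tool came one day after lung cancer cell lines were seeded in 1536-well plates, using either one drug or a fixed anchor-drug dose plus five library-drug doses (not always all listed) in √10 steps. After 5 days, nuclei were counted on 4× images. Relative viability is treated-well nuclei count divided by vehicle-well nuclei count, and values are medians of duplicate plates.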

Dactolisib + Crizotinib = compound: Cn1c(=O)n(-c2ccc(C(C)(C)C#N)cc2)c2c3cc(-c4cnc5ccccc5c4)ccc3ncc21 [Dactolisib] + C[C@@H](Oc1cc(-c2cnn(C3CCNCC3)c2)cnc1N)c1c(Cl)ccc(F)c1Cl [Crizotinib] (partner 1 µM)
Method in brief: as §1

Dactolisib + Pemetrexed = compound: Cn1c(=O)n(-c2ccc(C(C)(C)C#N)cc2)c2c3cc(-c4cnc5ccccc5c4)ccc3ncc21 [Dactolisib] + Nc1nc2[nH]cc(CCc3ccc(C(=O)N[C@@H](CCC(=O)O)C(=O)O)cc3)c2c(=O)[nH]1 [Pemetrexed] (partner 0.2 µM)
Method in brief: as §1

Dactolisib + Olaparib = compound: Cn1c(=O)n(-c2ccc(C(C)(C)C#N)cc2)c2c3cc(-c4cnc5ccccc5c4)ccc3ncc21 [Dactolisib] + O=C(c1cc(Cc2n[nH]c(=O)c3ccccc23)ccc1F)N1CCN(C(=O)C2CC2)CC1 [Olaparib] (partner 8 µM)
Method in brief: as §1

Cell Line	relative viability (AZ505 + Linsitinib; first compound 0.08 µM)	relative viability (AZ505 + Linsitinib; first compound 0.253 µM)	relative viability (AZ505 + Linsitinib; first compound 0.8 µM)	relative viability (AZ505 + Linsitinib; first compound 2.53 µM)	relative viability (AZ505 + Linsitinib; first compound 8 µM)	relative viability (Dactolisib + Crizotinib; first compound 0.002 µM)	relative viability (Dactolisib + Crizotinib; first compound 0.006325 µM)	relative viability (Dactolisib + Crizotinib; first compound 0.02 µM)	relative viability (Dactolisib + Crizotinib; first compound 0.06325 µM)	relative viability (Dactolisib + Crizotinib; first compound 0.2 µM)	relative viability (Dactolisib + Pemetrexed; first compound 0.002 µM)	relative viability (Dactolisib + Pemetrexed; first compound 0.006325 µM)	relative viability (Dactolisib + Pemetrexed; first compound 0.02 µM)	relative viability (Dactolisib + Pemetrexed; first compound 0.06325 µM)	relative viability (Dactolisib + Pemetrexed; first compound 0.2 µM)	relative viability (Dactolisib + Olaparib; first compound 0.002 µM)	relative viability (Dactolisib + Olaparib; first compound 0.006325 µM)	relative viability (Dactolisib + Olaparib; first compound 0.02 µM)	relative viability (Dactolisib + Olaparib; first compound 0.06325 µM)	relative viability (Dactolisib + Olaparib; first compound 0.2 µM)
NCI-H661	0.583	0.567	0.544	0.491	0.646	0.987	0.979	1.14	0.779	0.613	0.823	0.932	0.854	0.498	0.515	0.706	0.656	0.771	0.504	0.434
HCC-15	0.877	0.909	0.842	0.837	0.919	0.826	0.767	0.788	0.556	0.366	0.215	0.22	0.26	0.25	0.231	0.957	0.699	0.699	0.535	0.39
LCLC-103H	1.01	0.807	1.03	1.06	1.07	1.03	0.985	1.08	0.675	0.461	0.437	0.468	0.462	0.393	0.379	0.823	0.743	0.647	0.571	0.395
NCI-H441	0.513	0.51	0.662	0.543	0.509	0.923	0.64	0.554	0.496	0.271	0.24	0.266	0.24	0.221	0.25	0.784	0.571	0.597	0.248	0.25
EPLC-272H	0.922	1.14	1.04	1.34	1.33	0.949	0.564	0.647	0.494	0.483	0.214	0.333	0.294	0.36	0.314	0.807	0.486	0.512	0.284	0.232
